# Laboratory results taken from patent publication US12195427B2, “MASP-2 inhibitors and methods of use” (priority 2018, dated 2025).
# What was measured:
# [1] = molecular target: MASP-2 (CCP1-CCP2-SP) (Homo sapiens (Human), UniProt O00187); experiment: Enzymatic Assay for MASP-2 (fluorogenic substrate); type: biochemical
# [2] = molecular target: MASP-2 CCP2-SP (Homo sapiens (Human), UniProt O00187); experiment: MASP-2 co-crystallization, X-ray crystallography and structure analysis (H-bonds, van der Waals contacts); parameters: van der Waals contact distance, MASP-2 HIS 483 atom CD2 / van der Waals contact distance, MASP-2 HIS 483 atom NE2 / van der Waals contact distance, SER 654 C to compound atom / van der Waals contact distance, SER 654 O to compound atom / van der Waals contact distance, TRP 655 C to compound atom / van der Waals contact distance, MASP-2 GLY 528 atom CA / van der Waals contact distance TRP 655 atom CZ3 / van der Waals contact distance TRP 655 atom N / van der Waals contact distance TRP 655 atom CE3 / van der Waals contact distance GLY 656 atom C / van der Waals contact distance GLY 656 atom CA / van der Waals contact distance GLY 656 atom O / van der Waals contact distance, MASP-2 TYR 607 atom CD1 / van der Waals contact distance, MASP-2 PRO 606 atom O / d(C3,CA1) / d(CA1,N1)2 / d(H4,O1) / d(H4,O2) / d(O1,O2) / d(CA1,O2) / d(CA6,O1) / d(CA6,O2) / d(CA1,C5) / d(O2,H3) / d(N2,C2) / d(CA5,N2) / d(N2,C4) / d(N2,C6) / d(N2,CA3) / d(N2,O3) / d(O4,H2): unit not given beside the values; conditions: for H-bond distance to MASP-2 SER 657 atom O: SER 657 O; for van der Waals contact distance GLY 656 atom C: MASP-2 GLY 656 C; for van der Waals contact distance TRP 655 atom CE3: MASP-2 TRP 655 CE3, compound atom in line below; for van der Waals contact distance SER 657 atom C: MASP-2 SER 657 C, columns c12-c13 (inferred);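 as to Ligand-pharmacophore element distance, pharmacophore element C2: distance from averaged pharmacophore element to bound ligand; missing value means element absent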;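 as to Ligand-pharmacophore element distance, pharmacophore element C3: distance from averaged pharmacophore element to bound ligand; missing value means element absent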;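 as to Ligand-pharmacophore element distance, pharmacophore element C4: distance from averaged pharmacophore element to bound ligand; missing value means element absent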;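 as to Ligand-pharmacophore element distance, pharmacophore element C5: distance from averaged pharmacophore element to bound ligand; missing value means element absent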
# MASP-2 CCP2-SP, sequence (O00187 445-686): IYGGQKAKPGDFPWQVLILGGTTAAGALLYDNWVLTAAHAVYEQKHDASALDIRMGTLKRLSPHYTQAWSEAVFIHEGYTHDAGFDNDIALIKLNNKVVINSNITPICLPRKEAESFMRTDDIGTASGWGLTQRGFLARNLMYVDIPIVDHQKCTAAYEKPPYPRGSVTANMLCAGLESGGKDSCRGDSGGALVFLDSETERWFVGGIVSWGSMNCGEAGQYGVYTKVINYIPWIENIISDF
# MASP-2 CCP2-SP, sequence (O00187 364-432 partner): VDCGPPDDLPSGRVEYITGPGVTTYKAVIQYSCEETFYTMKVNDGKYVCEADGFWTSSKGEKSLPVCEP
# Outline: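 Soaked crystals of recombinant CCP2-SP (E. coli) yield the structures, phased by molecular replacement on 1Q3X pieces. Hydrophobic or nonbonded contacts can also cover atom pairs that are potential hydrogen bonds.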
# [3] = Table A5-1 pharmacophore: distance between elements, S2/S1 region
# [4] = Table A7-1, between pharmacophore elements of the bound compound
# [5] = Table A8-6, nearest protein atom in cell to the left
# MASP-2 (CCP1-CCP2-SP), sequence (O00187 445-686): as the sequence (O00187 445-686) above
smiles,measurement,setting,value
"Cc1nc(N)ccc1CNC(=O)[C@H](C)NC(=O)[C@H]1C[C@@H](c2cccc(CN)c2)CN1 [compound 1291, (2R,4S)—N—((S)-1-(((6-Amino-2-methylpyridin-3-yl)methyl)amino)-1-oxopropan-2-yl)-4-(3-(aminomethyl)phenyl)pyrrolidine-2-carboxamide]",Ki,[1],500 to 2500 nM
"C[C@H](NC(=O)[C@H](N)CCc1ccccc1)C(=O)NCc1cc(Cl)ccc1-n1cnnn1 [compound 1325, (R)-2-amino-N—((S)-1-((5-chloro-2-(1H-tetrazol-1-yl)benzyl)amino)-1-oxopropan-2-yl)-4-phenylbutanamide]",Ki,[1],500 to 2500 nM
"CNC(=O)c1ccc2c(=O)n(Cc3ccccc3)c(=O)n(CC(=O)NCc3ccc(C(=N)N)cc3)c2c1 [compound 2018, 3-Benzyl-1-(2-((4-carbamimidoylbenzyl)amino)-2-oxoethyl)-N-methyl-2,4-dioxo-1,2,3,4-tetrahydroquinazoline-7-carboxamide]",H-bond distance to MASP-2 GLN 665 atom OE1,"[2]; Table A1 (H-Bonds), GLN 665 OE1",2.56
same,H-bond distance to MASP-2 GLY 656 atom N,"[2]; Table A1 (H-Bonds), GLY 656 N",3.26
same,H-bond distance to MASP-2 SER 628 atom O,"[2]; Table A1 (H-Bonds), SER 628 O",3.01
same,H-bond distance to MASP-2 SER 633 atom OG,"[2]; Table A1 (H-Bonds), SER 633 OG",3.08
same,H-bond distance to MASP-2 SER 654 atom O,"[2]; Table A1 (H-Bonds), SER 654 O",2.94
same,H-bond distance to MASP-2 SER 657 atom O,[2]; Table A1 (H-Bonds),2.84
same,"van der Waals contact distance, MASP-2 HIS 483 atom CD2",[2]; Table A2-1,3.7
same,"van der Waals contact distance, MASP-2 HIS 483 atom NE2",[2]; Table A2-1,3.87
same,"van der Waals contact distance, MASP-2 PHE 529 atom CE2",[2]; Table A2-3,3.68
same,"van der Waals contact distance, MASP-2 amino acid atom to compound atom",[2]; Table A2-7 continued: CYS 629 (CA),3.87
same,"van der Waals contact distance, SER 654 C to compound atom",[2]; Table A2-11,3.79
same,van der Waals contact distance GLY 656 atom C,[2]; Table A2-13,3.64
same,van der Waals contact distance TRP 655 atom CE3,[2]; Table A2-13,3.76
same,van der Waals contact distance TRP 655 atom N,"[2]; Table A2-13, MASP-2 TRP 655 N",3.89
same,van der Waals contact distance GLY 656 atom O,"[2]; Table A2-14, MASP-2 GLY 656 O",3.3
same,van der Waals contact distance SER 657 atom C,[2]; Table A2-14,3.7
same,"Ligand-pharmacophore element distance, pharmacophore element C2","[2]; Table A4-1, element C2",0
same,"Ligand-pharmacophore element distance, pharmacophore element C3","[2]; Table A4-1, element C3",9.61
same,"Ligand-pharmacophore element distance, pharmacophore element C4","[2]; Table A4-1, element C4",0
same,"Ligand-pharmacophore element distance, pharmacophore element C5","[2]; Table A4-1, element C5",0
same,"Ligand-pharmacophore element distance, pharmacophore element C6","[2]; Table A4-1, element C6",0
same,"Ligand-pharmacophore element distance, pharmacophore element C7","[2]; Table A4-1, element C7",0
same,"Ligand-pharmacophore element distance, pharmacophore element CA1","[2]; Table A4-1, element CA1",0.54
same,"Ligand-pharmacophore element distance, pharmacophore element CA2","[2]; Table A4-1, element CA2",0
same,"Ligand-pharmacophore element distance, pharmacophore element CA3","[2]; Table A4-1, element CA3",0
same,"Ligand-pharmacophore element distance, pharmacophore element CA4","[2]; Table A4-1, element CA4",0
same,"Ligand-pharmacophore element distance, pharmacophore element CA5","[2]; Table A4-1, element CA5",1.25
same,"Ligand-pharmacophore element distance, pharmacophore element CA6","[2]; Table A4-1, element CA6",1.35
same,"d(CA1,N1)",[2]; [3],3.56
same,"d(CA1,O1)",[2]; [3],7.59
same,"d(CA1,O2)",[2]; [3],6.76
same,"d(CA6,O1)",[2]; [3],2.73
same,"d(CA6,O2)",[2]; [3],2.50
same,"d(H4,O1)",[2]; [3],3.89
same,"d(H4,O2)",[2]; [3],5.39
same,"d(O1,O2)",[2]; [3],4.92
same,"d(O2,H3)","[2]; Table A5-2 pharmacophore distance, S3/S4 region",9.00
same,"a(CA1, O1, O2)",[2]; Table A6-1 pharmacophore angle,100.76
same,"a(O1, CA6, O2)",[2]; Table A6-1 pharmacophore angle,159.18
same,"a(O1, O2, H4)",[2]; Table A6-1 pharmacophore angle,118.45
same,"A(N1, CA1, O1) a)","[2]; Table A6-1 pharmacophore angle, all compounds with protonatable center N1 except Methyl-amino-pyridine",169.37
same,"a(O1, O2, H3)",[2]; Table A6-2 pharmacophore angle,154.86
same,"Pharmacophore torsion angle a(CA6, O1, H4, O2)",[2]; [4],−9.94
same,"Pharmacophore torsion angle a(H4, O1, O2, H3)",[2]; [4],30.27
same,"Pharmacophore torsion angle a(N1, CA1, O2, H4)",[2]; [4],−154.72
same,"Pharmacophore torsion angle a(O1, H4, O2, CA1)",[2]; [4],−146.71
same,Pharmacophore protein distance to MET_658 (first MET_658 column),"[2]; Table A8-6, 6th residue column, nearest protein atom in cell to the left",1.58
same,Pharmacophore protein distance to MET_658 (second MET_658 column),"[2]; Table A8-6, 9th residue column, nearest protein atom in cell to the left",2.86
same,Pharmacophore protein distance to GLY_528,[2]; [5],3.65
same,Pharmacophore protein distance to PHE_529,[2]; [5],2.90
same,Pharmacophore protein distance to PRO_608,[2]; [5],3.74
same,Pharmacophore protein distance to SER_611,[2]; [5],2.86
same,Pharmacophore protein distance to TRP_655,"[2]; Table A8-6, pharmacophore elements C6, CA3, O3, H1, nearest protein atom in cell to the left",3.77
"N=C(N)c1ccc(CNC(=O)[C@@H]2CCN2C(=O)[C@H](NCC(=O)O)C2CCCCC2)cc1 [melagatran, reference compound]",H-bond distance to MASP-2 SER 628 atom OG,"[2]; Table A1 (H-Bonds), SER 628 OG",2.75
same,H-bond distance to MASP-2 SER 657 atom O,[2]; Table A1 (H-Bonds),2.84
same,"van der Waals contact distance, MASP-2 TYR 607 atom CD2",[2]; Table A2-4,3.72
same,"van der Waals contact distance, MASP-2 amino acid atom to compound atom","[2]; Table A2-5: TYR 607 (CE1, CE2, OH), PRO 608 (CD, CG), SER 611 (CA)",3.67
same,"van der Waals contact distance, MASP-2 amino acid atom to compound atom","[2]; Table A2-9, ARG 630, AA atoms CG, CZ",3.8
same,van der Waals contact distance GLY 656 atom C,[2]; Table A2-13,3.42
same,van der Waals contact distance TRP 655 atom CE3,[2]; Table A2-13,3.75
same,van der Waals contact distance TRP 655 atom O,"[2]; Table A2-13, MASP-2 TRP 655 O",3.39
same,van der Waals contact distance SER 657 atom C,[2]; Table A2-14,3.77
same,van der Waals contact distance SER 657 atom C,"[2]; Table A2-14, listed as Melagatran",3.68
